The values that follow are results of earlier work, collected in patent publication EP4772943A1, “ALKALINE AQUEOUS SOLUTION FOR SEMICONDUCTOR, METHOD FOR USE AS LOW-TOXICITY ALKALINE AQUEOUS SOLUTION FOR SEMICONDUCTOR, AND METHOD FOR PRODUCING ALKALINE AQUEOUS SOLUTION FOR SEMICONDUCTOR” (priority 2023, dated 2025).

The series deals with Daphnia sp. The settings on record: OECD TG202 Daphnia sp. acute immobilization test; converted to hydroxide of the quaternary ammonium ion as 100 mass%.

On to `C[N+](C)(C)C.[OH-]` [TMAH, Tetramethylammonium hydroxide], for which the EC50 value was 3 µg/mL.
